# Assay results: paper PMC8553373 (The Journal of Biological Chemistry, 2021)
# Target: Nsp9COV19(C73S) as substrate of Nsp12COV19 NiRAN domain (Severe acute respiratory syndrome coronavirus 2, UniProt P0DTD1, C4213S)
# Type: biochemical, SARS-CoV-2
smiles,measurement,value
"C=C1C(=O)[C@]23[C@H](O)[C@H]1CC[C@H]2[C@@]12CO[C@]3(O)[C@@H](O)[C@@H]1C(C)(C)CC[C@@H]2O [Compound 1, Oridonin]",level of inhibition with mutant Nsp9 compared with wild-type,approximately threefold lower
